Results from patent US20180055032A1, “ODORS FOR PSYLLID TRAPPING, REPELLING AND CONTROL” (The Regents of the University of California, priority 2011, published 2018).

Assays:
[1] = system: neuron 7B (rhinarial plate on flagellomere 7); format: cell-based, Diaphorina citri; conditions: for odor response (frequency of action potentials during stimulus minus baseline), 7B: Table 1, odor diluted to 1%, 50 μL in cartridge; as to response to ultra-prolonged activators, 7B: key: 0, no response; +, >50 spikes/second; ++, >100 spikes/second; +++, >150 spikes/second
[2] = system: neuron 6C (rhinarial plate on flagellomere 6); assay: single-sensillum electrophysiology, odor response of neuron 6C; format: cell-based, Diaphorina citri; conditions: for odor response (frequency of action potentials during stimulus minus baseline), 6C: Table 1, odor diluted to 1%, 50 μL in cartridge; as to response to ultra-prolonged activators, 6C: key: 0, no response; +, >50 spikes/second; ++, >100 spikes/second; +++, >150 spikes/second
[3] = system: neuron 4B (rhinarial plate on flagellomere 4); format: cell-based, Diaphorina citri; conditions: for odor response (frequency of action potentials during stimulus minus baseline), 4B: Table 1, odor diluted to 1%, 50 μL in cartridge
[4] = system: neuron 7A (rhinarial plate on flagellomere 7); assay: single-sensillum electrophysiology, odor response of neuron 7A; format: cell-based, Diaphorina citri; conditions: for odor response (frequency of action potentials during stimulus minus baseline), 7A: Table 1, odor diluted to 1%, 50 μL in cartridge; as to all read-outs here: key: 0, no response; +, >50 spikes/second; ++, >100 spikes/second; +++, >150 spikes/second
[5] = system: neuron 2A (rhinarial plate on flagellomere 2); assay: single-sensillum electrophysiology, odor response of neuron 2A; format: cell-based, Diaphorina citri; conditions: for odor response (frequency of action potentials during stimulus minus baseline), 2A: Table 1, odor diluted to 1%, 50 μL in cartridge; as to all read-outs here: key: 0, no response; +, >50 spikes/second; ++, >100 spikes/second; +++, >150 spikes/second
[6] = system: neuron 6A (rhinarial plate on flagellomere 6); assay: single-sensillum electrophysiology, odor response of neuron 6A; format: cell-based, Diaphorina citri; conditions: for odor response (frequency of action potentials during stimulus minus baseline), 6A: Table 1, odor diluted to 1%, 50 μL in cartridge
[7] = system: neuron 7C (rhinarial plate on flagellomere 7); assay: single-sensillum electrophysiology, odor response of neuron 7C; format: cell-based, Diaphorina citri; conditions: for odor response (frequency of action potentials during stimulus minus baseline), 7C: Table 1, odor diluted to 1%, 50 μL in cartridge
[8] = system: neuron 4A (rhinarial plate on flagellomere 4); assay: single-sensillum electrophysiology, odor response of neuron 4A; format: cell-based, Diaphorina citri; conditions: for odor response (frequency of action potentials during stimulus minus baseline), 4A: Table 1, odor diluted to 1%, 50 μL in cartridge
[9] = system: neuron 2B (rhinarial plate on flagellomere 2); assay: single-sensillum electrophysiology, odor response of neuron 2B; format: cell-based, Diaphorina citri; conditions: for odor response (frequency of action potentials during stimulus minus baseline), 2B: Table 1, odor diluted to 1%, 50 μL in cartridge
[10] = system: neuron 2C (rhinarial plate on flagellomere 2); assay: single-sensillum electrophysiology, odor response of neuron 2C; format: cell-based, Diaphorina citri; conditions: for odor response (frequency of action potentials during stimulus minus baseline), 2C: Table 1, odor diluted to 1%, 50 μL in cartridge
[11] = system: neuron 6B (rhinarial plate on flagellomere 6); assay: single-sensillum electrophysiology, odor response of neuron 6B; format: cell-based, Diaphorina citri; conditions: for odor response (frequency of action potentials during stimulus minus baseline), 6B: Table 1, odor diluted to 1%, 50 μL in cartridge
[12] = system: neuron 4C (rhinarial plate on flagellomere 4); assay: single-sensillum electrophysiology, odor response of neuron 4C; format: cell-based, Diaphorina citri; conditions: for odor response (frequency of action potentials during stimulus minus baseline), 4C: Table 1, odor diluted to 1%, 50 μL in cartridge
[13] = system: ACP; conditions: small plot field trial, cited from earlier work
[14] = Table 3, 10^−2 in paraffin oil, 50 μL, odor puff of 0.5 sec

Compound	odor response (frequency of action potentials during stimulus minus baseline), 7B [1]	odor response (frequency of action potentials during stimulus minus baseline), 6C [2]	odor response (frequency of action potentials during stimulus minus baseline), 4B [3]	odor response (frequency of action potentials during stimulus minus baseline), 7A [4]	odor response (frequency of action potentials during stimulus minus baseline), 2A [5]	odor response (frequency of action potentials during stimulus minus baseline), 6A [6]	odor response (frequency of action potentials during stimulus minus baseline), 7C [7]	odor response (frequency of action potentials during stimulus minus baseline), 4A [8]	odor response (frequency of action potentials during stimulus minus baseline), 2B [9]	odor response (frequency of action potentials during stimulus minus baseline), 2C [10]	odor response (frequency of action potentials during stimulus minus baseline), 6B [11]	odor response (frequency of action potentials during stimulus minus baseline), 4C [12]	also measured
CCCCCCO [1-hexanol]	0	0	+ (+, >50 spikes/second)	0	0	0	0	0	0	0	+ (+, >50 spikes/second)	0	response to ultra-prolonged activators, 7B [1, 14]: 0; response to ultra-prolonged activators, 6C [2, 14]: 0; response to ultra-prolonged activators, 4B [3, 14]: + (+, >50 spikes/second); response to ultra-prolonged activators, 7A [4, 14]: 0; response to ultra-prolonged activators, 2A [5, 14]: 0; response to ultra-prolonged activators, 6A [6, 14]: 0; response to ultra-prolonged activators, 7C [7, 14]: 0; response to ultra-prolonged activators, 4A [8, 14]: 0; response to ultra-prolonged activators, 2B [9, 14]: 0; response to ultra-prolonged activators, 2C [10, 14]: 0; response to ultra-prolonged activators, 6B [11, 14]: + (+, >50 spikes/second); response to ultra-prolonged activators, 4C [12, 14]: 0
CCCC(C)=O [2-pentanone]	0	0	+ (+, >50 spikes/second)	0	0	0	0	0	0	0	+ (+, >50 spikes/second)	0	–
CC1=CC=C(C(C)C)CC1 [α-terpinene]	0	0	++ (++, >100 spikes/second)	0	0	0	0	0	0	0	++ (++, >100 spikes/second)	0	–
CSSC [DMDS, dimethyl disulfide]	–	–	–	–	–	–	–	–	–	–	–	–	reduction in ACP densities ([13]; low psyllid density area (average 3-4 ACP/10 trees)): 65%; duration of reduction in ACP densities [13]: up to three
O=Cc1ccccc1 [benzaldehyde]	0	0	+ (+, >50 spikes/second)	0	0	0	0	0	0	+ (+, >50 spikes/second)	0	0	–
CC1=CCC2C(C1)C2(C)C (centres unmarked) [δ-3-carene]	0	0	++ (++, >100 spikes/second)	0	0	0	0	0	0	0	++ (++, >100 spikes/second)	0	–
